Test results reported in ChEMBL document CHEMBL4387741, “Optimization of novel reversible Bruton's tyrosine kinase inhibitors identified using Tethering-fragment-based screens” (Bioorg Med Chem, 2019).

What was measured:
B cell [1] = assay: Antiproliferative activity against goat anti-human IgM antibody/recombinant human IL4-stimulated human PBMC-derived B cells assessed as decrease in cell viability pretreated for 30 mins followed by goat anti-human IgM antibody/recombinant human IL4 stimulation for 3 days by CellTiter-Glo reagent assay; format: functional, cell-based
[2] = target: Mitogen-activated protein kinase kinase kinase 13 (Homo sapiens) (UniProt O43283); assay: Inhibition of wild-type human full length LZK (M1 to W966 residues) expressed in mammalian expression system at 1 uM by Kinomescan method relative to control
Cytochrome P450 3A4 = Cytochrome P450 3A4 (Homo sapiens, UniProt P08684); assay: Inhibition of CYP3A4 (unknown origin)
Cytochrome P450 3A4, sequence (P08684 whole entry): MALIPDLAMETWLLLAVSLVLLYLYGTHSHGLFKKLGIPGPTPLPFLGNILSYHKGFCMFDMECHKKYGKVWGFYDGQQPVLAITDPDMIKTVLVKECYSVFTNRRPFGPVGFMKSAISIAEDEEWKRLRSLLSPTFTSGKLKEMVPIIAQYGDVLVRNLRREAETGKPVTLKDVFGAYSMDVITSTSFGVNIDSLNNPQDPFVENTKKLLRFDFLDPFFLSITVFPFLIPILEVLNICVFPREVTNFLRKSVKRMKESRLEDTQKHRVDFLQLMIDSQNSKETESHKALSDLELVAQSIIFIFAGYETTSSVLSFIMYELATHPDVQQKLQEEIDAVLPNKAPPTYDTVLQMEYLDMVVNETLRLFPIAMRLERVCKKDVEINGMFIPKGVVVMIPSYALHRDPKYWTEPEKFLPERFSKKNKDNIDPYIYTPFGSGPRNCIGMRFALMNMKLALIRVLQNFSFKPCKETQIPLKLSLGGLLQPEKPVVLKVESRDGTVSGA

Cytochrome P450 1A2 = Cytochrome P450 1A2 (Homo sapiens, UniProt P05177); assay: Inhibition of CYP1A2 (unknown origin)
Cytochrome P450 1A2, sequence (P05177 whole entry, the tested form may be a part): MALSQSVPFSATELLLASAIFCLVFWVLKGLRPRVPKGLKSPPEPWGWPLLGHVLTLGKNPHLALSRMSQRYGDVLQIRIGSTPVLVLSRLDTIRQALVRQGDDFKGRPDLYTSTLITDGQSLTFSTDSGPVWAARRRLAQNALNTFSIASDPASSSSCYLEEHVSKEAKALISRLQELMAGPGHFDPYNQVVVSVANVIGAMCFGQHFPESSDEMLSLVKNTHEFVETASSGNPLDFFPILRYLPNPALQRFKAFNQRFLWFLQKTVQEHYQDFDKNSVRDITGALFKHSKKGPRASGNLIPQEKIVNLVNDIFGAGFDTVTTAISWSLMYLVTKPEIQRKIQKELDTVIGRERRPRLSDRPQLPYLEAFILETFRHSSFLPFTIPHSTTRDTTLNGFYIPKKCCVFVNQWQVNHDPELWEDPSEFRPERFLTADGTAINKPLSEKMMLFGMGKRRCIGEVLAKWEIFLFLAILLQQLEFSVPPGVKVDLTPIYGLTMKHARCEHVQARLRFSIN

[3] = target: Tyrosine-protein kinase ITK/TSK (Homo sapiens, UniProt Q08881); assay: Binding affinity to wild-type human partial length ITK (R335 to L620 residues) expressed in bacterial expression system by Kinomescan method
Tyrosine-protein kinase ITK/TSK, sequence (Q08881 whole entry, the tested form may be a part): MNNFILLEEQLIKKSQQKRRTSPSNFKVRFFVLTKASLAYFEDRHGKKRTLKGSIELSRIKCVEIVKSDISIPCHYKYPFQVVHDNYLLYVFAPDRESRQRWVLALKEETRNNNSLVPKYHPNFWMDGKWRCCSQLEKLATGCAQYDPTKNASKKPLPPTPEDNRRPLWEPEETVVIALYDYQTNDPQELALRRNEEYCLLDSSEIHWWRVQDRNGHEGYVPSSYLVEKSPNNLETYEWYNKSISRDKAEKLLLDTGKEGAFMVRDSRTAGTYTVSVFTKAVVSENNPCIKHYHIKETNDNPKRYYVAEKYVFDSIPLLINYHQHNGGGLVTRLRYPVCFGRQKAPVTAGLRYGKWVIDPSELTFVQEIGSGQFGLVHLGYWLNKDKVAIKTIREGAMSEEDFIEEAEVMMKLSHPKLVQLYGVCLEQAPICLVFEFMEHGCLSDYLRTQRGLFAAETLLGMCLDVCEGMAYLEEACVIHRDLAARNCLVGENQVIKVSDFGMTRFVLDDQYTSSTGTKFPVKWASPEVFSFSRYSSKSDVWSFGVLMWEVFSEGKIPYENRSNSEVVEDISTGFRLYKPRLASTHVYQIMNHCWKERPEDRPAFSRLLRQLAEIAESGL

Cytochrome P450 2C19 = Cytochrome P450 2C19 (Homo sapiens, UniProt P33261); assay: Inhibition of CYP2C19 (unknown origin)
Cytochrome P450 2C19, sequence (P33261 whole entry, the tested form may be a part): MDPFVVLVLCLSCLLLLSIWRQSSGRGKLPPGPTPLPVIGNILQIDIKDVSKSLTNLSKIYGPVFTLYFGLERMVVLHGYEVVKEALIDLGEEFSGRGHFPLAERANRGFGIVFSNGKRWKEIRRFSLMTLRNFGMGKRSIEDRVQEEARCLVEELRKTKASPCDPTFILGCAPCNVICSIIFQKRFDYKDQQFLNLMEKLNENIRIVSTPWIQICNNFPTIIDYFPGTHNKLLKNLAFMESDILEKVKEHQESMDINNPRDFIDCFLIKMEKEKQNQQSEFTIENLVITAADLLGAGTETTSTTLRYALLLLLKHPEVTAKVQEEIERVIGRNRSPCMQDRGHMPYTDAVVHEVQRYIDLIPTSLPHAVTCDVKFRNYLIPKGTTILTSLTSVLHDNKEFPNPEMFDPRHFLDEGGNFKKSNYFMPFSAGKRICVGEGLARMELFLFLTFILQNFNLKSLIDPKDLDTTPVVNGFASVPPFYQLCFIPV

[4] = test system: Serine/threonine-protein kinase B-raf (Homo sapiens), P15056 [V600E]; assay: Inhibition of human partial length BRAF V600E mutant (S429 to E741 residues) expressed in mammalian expression system at 1 uM by Kinomescan method relative to control
B cell [5] = assay: Antiproliferative activity against goat anti-human IgM antibody-stimulated human PBMC-derived B cells assessed as decrease in cell viability pretreated for 30 mins followed by goat anti-human IgM antibody stimulation for 3 days by CellTiter-Glo reagent assay; format: functional, cell-based
B cell [6] = assay: Antiproliferative activity against goat anti-human IgM antibody/BAFF-stimulated human PBMC-derived B cells assessed as decrease in cell viability pretreated for 30 mins followed by goat anti-human IgM antibody/BAFF stimulation for 3 days by CellTiter-Glo reagent assay; format: functional, cell-based
[7] = target: MAP kinase-activated protein kinase 5 (Homo sapiens) (UniProt Q8IW41); assay: Inhibition of wild-type human partial length MAPKAPK5 (M1 to D322 residues) expressed in mammalian expression system at 1 uM by Kinomescan method relative to control
[8] = test system: ALK tyrosine kinase receptor (Homo sapiens), Q9UM73 [L1196M]; assay: Inhibition of wild-type human partial length ALK L1196M mutant (I1088 to E1409 residues) expressed in mammalian expression system at 1 uM by Kinomescan method relative to control
[9] = target: Serine/threonine-protein kinase TAO2 (Homo sapiens) (UniProt Q9UL54); assay: Inhibition of wild-type human partial length TAOK2 (M1 to A320 residues) expressed in mammalian expression system at 1 uM by Kinomescan method relative to control
[10] = target: Activin receptor type-2A (Homo sapiens) (UniProt P27037); assay: Inhibition of wild-type human ACVR2A (V171 to T499 residues) expressed in bacterial expression system at 1 uM by Kinomescan method relative to control
[11] = target: Tyrosine-protein kinase TXK (Homo sapiens, UniProt P42681); assay: Binding affinity to wild-type human partial length TXK tyrosine kinase (L238 to W527 residues) expressed in bacterial expression system by Kinomescan method
Tyrosine-protein kinase TXK, sequence (P42681 whole entry, the tested form may be a part): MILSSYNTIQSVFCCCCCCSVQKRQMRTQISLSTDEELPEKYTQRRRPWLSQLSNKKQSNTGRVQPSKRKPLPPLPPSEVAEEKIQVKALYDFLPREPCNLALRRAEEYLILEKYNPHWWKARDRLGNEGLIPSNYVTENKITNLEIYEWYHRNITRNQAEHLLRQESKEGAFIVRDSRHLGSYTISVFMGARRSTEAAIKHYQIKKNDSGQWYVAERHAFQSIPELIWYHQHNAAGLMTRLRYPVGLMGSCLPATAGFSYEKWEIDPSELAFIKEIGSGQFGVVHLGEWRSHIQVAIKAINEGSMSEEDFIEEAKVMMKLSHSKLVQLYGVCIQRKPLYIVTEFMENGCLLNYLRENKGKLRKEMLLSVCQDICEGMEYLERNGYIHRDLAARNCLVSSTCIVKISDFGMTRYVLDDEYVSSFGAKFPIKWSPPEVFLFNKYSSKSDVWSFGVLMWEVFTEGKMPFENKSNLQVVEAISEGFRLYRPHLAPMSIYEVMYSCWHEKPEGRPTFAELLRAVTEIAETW

Cytochrome P450 2C9 = Cytochrome P450 2C9 (Homo sapiens, UniProt P11712); assay: Inhibition of CYP2C9 (unknown origin)
Cytochrome P450 2C9, sequence (P11712 whole entry, the tested form may be a part): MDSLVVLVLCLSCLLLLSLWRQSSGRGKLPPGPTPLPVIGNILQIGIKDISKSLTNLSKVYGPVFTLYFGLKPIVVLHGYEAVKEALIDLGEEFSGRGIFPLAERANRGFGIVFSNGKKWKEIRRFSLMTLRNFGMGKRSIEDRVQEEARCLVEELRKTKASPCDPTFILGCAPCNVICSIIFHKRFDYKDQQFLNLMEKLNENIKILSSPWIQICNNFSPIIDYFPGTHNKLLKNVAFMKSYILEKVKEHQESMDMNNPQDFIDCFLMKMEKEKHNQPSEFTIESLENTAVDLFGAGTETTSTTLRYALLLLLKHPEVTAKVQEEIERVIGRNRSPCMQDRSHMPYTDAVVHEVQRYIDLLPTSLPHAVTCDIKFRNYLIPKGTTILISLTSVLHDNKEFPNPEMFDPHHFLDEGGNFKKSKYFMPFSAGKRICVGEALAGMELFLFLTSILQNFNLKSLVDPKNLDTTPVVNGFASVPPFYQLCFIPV

[12] = target: Tyrosine-protein kinase Tec (Homo sapiens, UniProt P42680); assay: Binding affinity to wild-type human partial length TEC (L341 to D620 residues) expressed in bacterial expression system by Kinomescan method
Tyrosine-protein kinase Tec, sequence (P42680 whole entry, the tested form may be a part): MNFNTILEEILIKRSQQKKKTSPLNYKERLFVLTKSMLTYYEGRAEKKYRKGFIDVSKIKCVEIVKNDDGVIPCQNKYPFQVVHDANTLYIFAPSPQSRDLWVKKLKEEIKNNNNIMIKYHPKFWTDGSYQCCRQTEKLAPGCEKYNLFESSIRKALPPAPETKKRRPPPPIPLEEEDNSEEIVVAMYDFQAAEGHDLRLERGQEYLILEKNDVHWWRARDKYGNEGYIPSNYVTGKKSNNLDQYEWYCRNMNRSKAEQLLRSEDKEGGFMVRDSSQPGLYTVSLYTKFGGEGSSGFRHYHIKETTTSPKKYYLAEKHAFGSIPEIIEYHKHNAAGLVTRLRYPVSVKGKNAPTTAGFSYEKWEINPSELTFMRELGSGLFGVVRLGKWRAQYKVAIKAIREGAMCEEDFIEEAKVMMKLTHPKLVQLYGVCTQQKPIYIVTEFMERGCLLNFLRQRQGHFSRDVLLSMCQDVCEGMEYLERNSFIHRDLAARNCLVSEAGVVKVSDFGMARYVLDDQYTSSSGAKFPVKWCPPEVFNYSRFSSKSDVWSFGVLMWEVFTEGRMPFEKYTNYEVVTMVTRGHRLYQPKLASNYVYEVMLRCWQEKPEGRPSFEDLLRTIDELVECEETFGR

[13] = test system: Proto-oncogene tyrosine-protein kinase receptor Ret (Homo sapiens), P07949 [V804L]; assay: Inhibition of human partial length RET V804L mutant (E713 to D1014 residues) expressed in bacterial expression system at 1 uM by Kinomescan method relative to control
[14] = target: Serine/threonine-protein kinase 38-like (Homo sapiens) (UniProt Q9Y2H1); assay: Inhibition of wild-type human partial length NDR2 (N34 to E447 residues) expressed in bacterial expression system at 10 uM by Kinomescan method relative to control
[15] = test system: Epidermal growth factor receptor (Homo sapiens), P00533 [UNDEFINED MUTATION]; assay: Inhibition of human partial length EGFR S752-I759del mutant expressed in bacterial expression system at 10 uM by Kinomescan method relative to control
[16] = test system: Phosphatidylinositol 4,5-bisphosphate 3-kinase catalytic subunit alpha isoform (Homo sapiens), P42336 [M1043I]; assay: Inhibition of human partial length PIK3CA M1043I mutant (R108 to N1068 residues) expressed in mammalian expression system at 10 uM by Kinomescan method relative to control
[17] = target: Ribosomal protein S6 kinase alpha-5 (Homo sapiens) (UniProt O75582); assay: Inhibition of wild-type human partial length C-terminal RPS6KA5 kinase domain 2 (V390 to T718 residues) expressed in bacterial expression system at 10 uM by Kinomescan method relative to control
[18] = target: Tyrosine-protein kinase Fyn (Homo sapiens) (UniProt P06241); assay: Inhibition of wild-type human partial length FYN (T243 to L534 residues) expressed in bacterial expression system at 10 uM by Kinomescan method relative to control
[19] = target: Serine/threonine-protein kinase SIK3 (Homo sapiens) (UniProt Q9Y2K2); assay: Inhibition of wild-type human partial length QSK (A90 to L395 residues) expressed in mammalian expression system at 10 uM by Kinomescan method relative to control
[20] = target: Serine/threonine-protein kinase ULK1 (Homo sapiens) (UniProt O75385); assay: Inhibition of wild-type human partial length ULK1 (M1 to T309 residues) expressed in mammalian expression system at 10 uM by Kinomescan method relative to control
Serine/threonine-protein kinase ULK1 (Homo sapiens), sequence (O75385 whole entry, the tested form may be a part): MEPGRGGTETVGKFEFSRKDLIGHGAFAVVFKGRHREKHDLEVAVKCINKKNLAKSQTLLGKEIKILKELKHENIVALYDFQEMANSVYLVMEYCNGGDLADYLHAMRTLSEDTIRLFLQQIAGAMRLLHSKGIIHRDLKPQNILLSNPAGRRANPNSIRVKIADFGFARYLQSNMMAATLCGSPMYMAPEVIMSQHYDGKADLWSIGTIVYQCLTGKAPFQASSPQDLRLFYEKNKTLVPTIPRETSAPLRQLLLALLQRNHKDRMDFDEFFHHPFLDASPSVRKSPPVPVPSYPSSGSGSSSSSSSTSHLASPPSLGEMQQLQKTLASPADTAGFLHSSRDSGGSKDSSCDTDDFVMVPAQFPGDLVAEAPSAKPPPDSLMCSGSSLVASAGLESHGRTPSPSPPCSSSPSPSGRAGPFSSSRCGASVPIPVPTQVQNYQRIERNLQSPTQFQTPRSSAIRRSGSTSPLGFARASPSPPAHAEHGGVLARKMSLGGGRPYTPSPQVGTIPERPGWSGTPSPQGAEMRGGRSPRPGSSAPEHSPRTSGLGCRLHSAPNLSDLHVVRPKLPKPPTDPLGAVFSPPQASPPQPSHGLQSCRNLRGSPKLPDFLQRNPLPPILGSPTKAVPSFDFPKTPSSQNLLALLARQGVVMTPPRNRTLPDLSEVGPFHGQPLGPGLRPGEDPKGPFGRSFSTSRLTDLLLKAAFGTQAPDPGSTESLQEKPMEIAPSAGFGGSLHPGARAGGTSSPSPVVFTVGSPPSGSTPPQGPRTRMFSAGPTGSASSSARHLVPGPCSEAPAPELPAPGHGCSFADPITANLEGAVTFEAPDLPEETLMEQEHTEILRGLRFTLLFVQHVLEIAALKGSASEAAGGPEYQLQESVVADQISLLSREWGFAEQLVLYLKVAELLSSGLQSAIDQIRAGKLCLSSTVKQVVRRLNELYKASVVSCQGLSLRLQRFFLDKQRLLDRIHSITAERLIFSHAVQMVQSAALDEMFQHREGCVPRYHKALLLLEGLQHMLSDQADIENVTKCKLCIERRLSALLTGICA

[21] = target: Receptor-interacting serine/threonine-protein kinase 2 (Homo sapiens) (UniProt O43353); assay: Inhibition of wild-type human partial length RIPK2 (M1 to K310 residues) expressed in bacterial expression system at 10 uM by Kinomescan method relative to control
[22] = target: Tyrosine-protein kinase JAK1 (Homo sapiens) (UniProt P23458); assay: Inhibition of wild-type human partial length JAK1 JH1 catalytic domain (V856 to K1154 residues) expressed in bacterial expression system at 10 uM by Kinomescan method relative to control
[23] = test system: Receptor-type tyrosine-protein kinase FLT3 (Homo sapiens), P36888 [R834Q]; assay: Inhibition of human partial length FLT3 R834Q mutant (V592 to Y969 residues) expressed in mammalian expression system at 10 uM by Kinomescan method relative to control
[24] = test system: Tyrosine-protein kinase ABL1 (Homo sapiens), P00519 [T315I]; assay: Inhibition of human non-phosphorylated ABL1 T315I mutant (S229 to K512 residues) expressed in mammalian expression system at 10 uM by Kinomescan method relative to control
[25] = target: Platelet-derived growth factor receptor beta (Homo sapiens) (UniProt P09619); assay: Inhibition of wild-type human partial length PDGFRB (V582 to Y1009 residues) expressed in bacterial expression system at 10 uM by Kinomescan method relative to control

## O=C(Nc1cccc([C@@H]2CN(c3ncnc4[nH]ccc34)CCN2CCO)c1)Nc1c(F)cccc1N1CCCC1
B cell [1]
  IC50: 0.238 to 0.24 µM
[2]
  inhibition: 100%
Cytochrome P450 3A4
  IC50: > 5 µM
Cytochrome P450 1A2
  IC50: > 5 µM
[3]
  Kd: 0.005 µM
Cytochrome P450 2C19
  IC50: > 5 µM
[4]
  inhibition: 72%
B cell [5]
  IC50: 0.251 µM
B cell [6]
  IC50: 0.092 µM
[7]
  inhibition: 100%
[8]
  inhibition: 74%
[9]
  inhibition: 85%
[10]
  inhibition: 100%
[11]
  Kd: 0.53 µM
Cytochrome P450 2C9
  IC50: > 5 µM
[12]
  Kd: 0.42 µM
[13]
  inhibition: 0.2%

## O=C(Nc1cccc([C@H]2CCCN(c3ncnc4[nH]ccc34)C2)c1)Nc1ccccc1N1CCCC1
[14]
  inhibition: 100%
B cell [1]
  IC50: 1.89 µM
[15]
  inhibition: 78%
Cytochrome P450 3A4
  IC50: 1 µM
[16]
  inhibition: 93%
Cytochrome P450 1A2
  IC50: 2.2 µM
[3]
  Kd: 0.4 µM
Cytochrome P450 2C19
  IC50: 2.2 µM
[17]
  inhibition: 75%
B cell [5]
  IC50: 1.01 µM
[18]
  inhibition: 67%
B cell [6]
  IC50: 0.916 µM
[19]
  inhibition: 88%
[20]
  inhibition: 37%
[21]
  inhibition: 100%
[22]
  inhibition: 29%
[11]
  Kd: > 1 µM
[23]
  inhibition: 44%
Cytochrome P450 2C9
  IC50: 1.8 µM
[12]
  Kd: > 1 µM
[24]
  inhibition: 65%
[25]
  inhibition: 0.1%
